# Measured values reported in patent US20170311599A1, “Target for Anthelmintic Development, and Anthelmintics Utilizing the Same” (The University of Toledo, priority 2016, published 2017).
# Entries after “also recorded” stand apart in the source; their conditions may differ. Read-outs that look alike come from different tables or passages of the source.
# Experiments:
# [1] = tested on: wild type C. elegans; experiment: Paralysis assay on agar plates, wild type C. elegans; type: in vivo, Caenorhabditis elegans
# [2] = tested on: 5-HT quint animals (C. elegans lacking all previously identified 5-HT receptors); experiment: Paralysis assay, quintuple 5-HT receptor null C. elegans (5-HT quint); type: in vivo, Caenorhabditis elegans; settings: for effect on locomotion: 5-HT quint, 5-HT
# [3] = target: C. elegans 5-HT1-like receptor SER-4 (Caenorhabditis elegans, UniProt G5EGH0); experiment: in vivo; type: in vivo; settings: for effect on locomotion: SER-4 in cholinergic motor neurons; for activity from observations of nematode locomotion: FIGS. 9A-9B
# C. elegans 5-HT1-like receptor SER-4 (Caenorhabditis elegans, UniProt G5EGH0), sequence (G5EGH0 entry or part of it): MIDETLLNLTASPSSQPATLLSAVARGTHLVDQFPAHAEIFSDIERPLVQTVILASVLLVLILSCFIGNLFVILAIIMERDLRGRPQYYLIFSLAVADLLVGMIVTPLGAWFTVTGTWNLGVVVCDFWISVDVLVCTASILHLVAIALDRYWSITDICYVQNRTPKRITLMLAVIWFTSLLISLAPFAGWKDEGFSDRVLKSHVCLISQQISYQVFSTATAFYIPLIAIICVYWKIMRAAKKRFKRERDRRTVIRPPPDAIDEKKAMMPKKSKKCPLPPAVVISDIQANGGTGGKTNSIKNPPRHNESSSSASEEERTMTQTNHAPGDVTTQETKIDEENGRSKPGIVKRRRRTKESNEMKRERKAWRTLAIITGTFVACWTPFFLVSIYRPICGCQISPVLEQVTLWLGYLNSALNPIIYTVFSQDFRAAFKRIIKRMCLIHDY
# [4] = target: T1, Drosophila 5-HT1 orthologue (5HT1A) (Drosophila melanogaster, UniProt P28285); experiment: Paralysis assay, 5-HT quint expressing Drosophila 5-HT1 orthologue in cholinergic motor neurons; type: in vivo
# T1 sequence (P28285 1-834): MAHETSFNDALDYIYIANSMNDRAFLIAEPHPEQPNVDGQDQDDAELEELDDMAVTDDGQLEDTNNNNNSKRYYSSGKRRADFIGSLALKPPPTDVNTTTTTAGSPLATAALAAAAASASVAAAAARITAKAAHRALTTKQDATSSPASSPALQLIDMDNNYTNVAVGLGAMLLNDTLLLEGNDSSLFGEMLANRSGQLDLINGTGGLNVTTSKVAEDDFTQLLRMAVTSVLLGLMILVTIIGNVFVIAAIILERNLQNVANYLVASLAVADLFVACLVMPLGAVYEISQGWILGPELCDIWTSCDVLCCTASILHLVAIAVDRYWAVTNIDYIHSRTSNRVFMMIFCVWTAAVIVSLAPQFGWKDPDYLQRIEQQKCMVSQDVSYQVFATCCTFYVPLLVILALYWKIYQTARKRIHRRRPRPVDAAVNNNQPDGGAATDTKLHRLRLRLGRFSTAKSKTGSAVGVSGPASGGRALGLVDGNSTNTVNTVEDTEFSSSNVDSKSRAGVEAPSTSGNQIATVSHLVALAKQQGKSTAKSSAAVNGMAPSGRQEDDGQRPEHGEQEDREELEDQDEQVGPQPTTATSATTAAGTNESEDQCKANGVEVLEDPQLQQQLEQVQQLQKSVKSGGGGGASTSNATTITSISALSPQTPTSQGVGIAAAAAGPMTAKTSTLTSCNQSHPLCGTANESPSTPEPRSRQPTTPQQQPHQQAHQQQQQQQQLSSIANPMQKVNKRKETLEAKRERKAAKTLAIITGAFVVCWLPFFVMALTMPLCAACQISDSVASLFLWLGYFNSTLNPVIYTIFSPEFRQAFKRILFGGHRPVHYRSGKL
# [5] = target: T2, human 5-HT1A receptor (HTR1A) (Homo sapiens, UniProt P08908); experiment: Paralysis assay, 5-HT quint expressing human 5-HT1A receptor in cholinergic motor neurons; type: in vivo, Caenorhabditis elegans
# T2 construct: GFP (C); clone ID: 9020250
# T2 sequence (P08908 1-422): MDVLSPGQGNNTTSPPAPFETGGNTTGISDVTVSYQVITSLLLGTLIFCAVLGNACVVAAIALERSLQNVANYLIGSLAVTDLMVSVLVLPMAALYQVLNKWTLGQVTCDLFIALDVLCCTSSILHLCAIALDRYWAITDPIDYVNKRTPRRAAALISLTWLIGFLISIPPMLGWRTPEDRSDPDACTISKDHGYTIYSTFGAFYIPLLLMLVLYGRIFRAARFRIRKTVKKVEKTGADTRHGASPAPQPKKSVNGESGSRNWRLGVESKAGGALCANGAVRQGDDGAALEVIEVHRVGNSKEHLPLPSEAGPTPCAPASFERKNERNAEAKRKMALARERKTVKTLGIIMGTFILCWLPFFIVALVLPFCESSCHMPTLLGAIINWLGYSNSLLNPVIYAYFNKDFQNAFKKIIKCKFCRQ
# [6] = tested on: bus-17 (e2800) mutants; experiment: whole plant or invertebrate; type: in vivo; settings: Caenorhabditis elegans, 10 min, read-out: EC50 of 5-HT-dependent paralysis
# [7] = target: H. contortus (Hco) MOD-1 orthologue (Haemonchus contortus, UniProt M9MR50); experiment: in vivo
# H. contortus (Hco) MOD-1 orthologue, sequence (M9MR50 entry or part of it): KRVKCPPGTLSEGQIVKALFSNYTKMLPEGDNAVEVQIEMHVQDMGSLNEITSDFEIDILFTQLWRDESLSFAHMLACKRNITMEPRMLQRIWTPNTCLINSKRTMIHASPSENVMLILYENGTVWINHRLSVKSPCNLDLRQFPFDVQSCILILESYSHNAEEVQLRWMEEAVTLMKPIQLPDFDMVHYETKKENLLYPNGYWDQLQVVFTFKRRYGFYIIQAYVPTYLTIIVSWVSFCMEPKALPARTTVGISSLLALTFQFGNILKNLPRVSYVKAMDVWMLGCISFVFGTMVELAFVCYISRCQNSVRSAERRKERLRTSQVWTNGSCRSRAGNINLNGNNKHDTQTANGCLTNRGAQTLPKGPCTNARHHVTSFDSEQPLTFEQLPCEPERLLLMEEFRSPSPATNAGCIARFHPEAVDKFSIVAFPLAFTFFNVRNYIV
# [8] = tested on: flea (Ctenocephalides felis); experiment: Flea (FF) membrane feed assay (adult); type: in vivo; settings: adult fleas fed treated blood, 24 hours, lowest dose causing mortality ≧50%
# Protocol: For the flea (FF) membrane feed assay (adult), compounds were dissolved in DMSO and aliquots were added to citrated bovine blood in membrane covered wells warmed to 37° C. Adult fleas were newly emerged (3-7 days) and unfed. Feeding wells containing approximately 10 adult fleas were placed onto the treated blood wells, and the fleas were allowed to feed on the treated blood for 24 hours. […] Each compound was tested at half-log intervals, and endpoint data was recorded as Minimum Effective Concentration (MEC) in μM. MEC is a subjective visual assessment of organism viability, and is the lowest dose to cause mortality ≧50%.
# [9] = tested on: heartworm (Dirofilaria immitis) microfilaria; experiment: Heartworm (HW) motility assay (microfilaria); type: in vivo; design: activity against heartworm: dose or concentration left out as unconfirmed; settings: for HW (n = 2 mean), minimum efficacious dose (MED): microfilaria, 72 hour incubation, >50% decrease in motility
# Protocol: For the heartworm (HW) motility assay (microfilaria), compounds were dissolved in DMSO and half log dilutions were placed into individual wells. […] […] The data reported is minimum efficacious dose (MED), which is the lowest concentration where there was a >50% decrease in motility compared to the DMSO controls.
# [10] = tested on: Haemonchus contortus exsheathed L3 larvae; experiment: Gastrointestinal nematode (HC) motility assay (exsheathed L3); type: in vivo; settings: exsheathed L3, 96 hours, >50% decrease in motility
# Protocol: For the gastrointestinal nematode (HC) motility assay ([…]3), compounds were dissolved in DMSO and half log dilutions were placed into individual wells. To each well was added approximately 100 Haemonchus contortus […]3 larvae in a buffered nutrient media containing glucose and antibiotic panel resulting in a final concentration curve ranging from 100 μM to 1 nM. […] The data reported is minimum efficacious dose (MED), which is the lowest concentration where there was a >50% decrease in motility compared to the DMSO controls.
# [11] = tested on: C. elegans 5-HT1-like receptor SER-4; experiment: in vivo; type: in vivo, Caenorhabditis elegans; settings: paralysis screen, FIGS. 9A-9B
# [12] = target: H. contortus (Hco) LGC-55 orthologue (Haemonchus contortus, UniProt D7F471); experiment: in vivo
# H. contortus (Hco) LGC-55 orthologue, sequence (D7F471 entry or part of it): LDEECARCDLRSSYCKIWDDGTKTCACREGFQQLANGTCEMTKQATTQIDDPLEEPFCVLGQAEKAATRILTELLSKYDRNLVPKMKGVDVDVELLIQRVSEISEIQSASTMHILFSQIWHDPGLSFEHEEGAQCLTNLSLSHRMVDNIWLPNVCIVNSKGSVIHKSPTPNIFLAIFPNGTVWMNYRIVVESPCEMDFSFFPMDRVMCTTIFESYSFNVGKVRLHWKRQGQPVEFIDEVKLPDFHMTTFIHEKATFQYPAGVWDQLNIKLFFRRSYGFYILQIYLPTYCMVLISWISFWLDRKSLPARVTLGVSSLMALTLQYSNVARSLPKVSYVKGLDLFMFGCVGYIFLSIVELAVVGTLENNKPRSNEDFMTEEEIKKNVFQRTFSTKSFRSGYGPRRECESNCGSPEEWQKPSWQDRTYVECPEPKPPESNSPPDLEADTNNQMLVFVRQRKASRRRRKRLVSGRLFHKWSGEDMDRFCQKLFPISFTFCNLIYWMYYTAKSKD
# [13] = tested on: TA quad animals (lack all previously identified TA receptors); experiment: Paralysis assay, quadruple TA receptor null C. elegans (TA quad); type: in vivo, Caenorhabditis elegans
# [14] = target: C. elegans LGC-55 (TA-gated Cl- channel) (Caenorhabditis elegans, UniProt G5EEC1); experiment: Paralysis assay, TA quad expressing C. elegans LGC-55
# C. elegans LGC-55 (TA-gated Cl- channel), sequence (G5EEC1 entry or part of it): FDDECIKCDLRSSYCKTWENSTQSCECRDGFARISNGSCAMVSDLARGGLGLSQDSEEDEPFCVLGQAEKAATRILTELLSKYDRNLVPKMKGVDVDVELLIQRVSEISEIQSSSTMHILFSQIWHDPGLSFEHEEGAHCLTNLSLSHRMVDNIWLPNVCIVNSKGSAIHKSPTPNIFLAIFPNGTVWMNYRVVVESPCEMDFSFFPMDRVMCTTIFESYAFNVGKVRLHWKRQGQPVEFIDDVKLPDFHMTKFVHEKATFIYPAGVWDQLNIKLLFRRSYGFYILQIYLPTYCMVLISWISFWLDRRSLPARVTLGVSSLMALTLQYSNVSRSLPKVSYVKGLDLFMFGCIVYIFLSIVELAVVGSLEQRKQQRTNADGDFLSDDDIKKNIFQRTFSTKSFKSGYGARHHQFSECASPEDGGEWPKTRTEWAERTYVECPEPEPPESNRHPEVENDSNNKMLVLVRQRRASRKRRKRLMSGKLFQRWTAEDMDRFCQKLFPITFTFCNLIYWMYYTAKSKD
# [15] = tested on: Drosophila histamine-gated Cl- channel (HisCl1)
# [16] = exogenous 5-HT (1 mM), hypotonic
structure (smiles),measurement,setting,value
"NCCc1c[nH]c2ccc(O)cc12 [5-HT, Serotonin]",paralysis,"[1]; 1 mM 5-HT, 10 min exposure, hypotonic non-NGM agar",50%
same,paralysis,"[1]; 15 mM 5-HT, NGM agar plates",rapid paralysis
same,EC50,"[1]; Caenorhabditis elegans, 10 min, isotonic NGM agar plates, 10 min, read-out: EC50 of 5-HT-dependent paralysis",11500 µM
same,EC50,"[1]; Caenorhabditis elegans, hypotonic (agar alone without NGM, salt-free), read-out: EC50 of 5-HT-dependent paralysis",~400 µM
same,EC50,"[1]; hypotonic (agar alone without NGM, salt-free), read-out: EC50 of 5-HT-dependent paralysis",~500 µM
same,EC50,"[1]; isotonic NGM agar plates, 10 min, read-out: EC50 of 5-HT-dependent paralysis",~12000 µM
same,effect on locomotion,[2]; NGM agar plates,no effect on locomotion
same,effect on locomotion,[2]; hypotonic non-NGM agar plates,no effect on locomotion
same,paralysis,"[3]; 5-HT quint expressing SER-4 in AIB interneurons (Pnpr-9), 5-HT (1 mM), hypotonic",rapidly paralyzed
same,paralysis,"[3]; 5-HT quint expressing SER-4 in cholinergic motor neurons (Punc-17β), 5-HT (1 mM), hypotonic",rapidly paralyzed
same,paralysis,"[3]; SER-4 quad (ser-5;mod-1;ser-7 ser-1 quadruple null), 15 mM 5-HT, NGM agar plates",rapid paralysis
same,locomotion,[4]; [16],dramatically inhibited
same,locomotion,[5]; [16],dramatically inhibited
same,EC50,[6],~240 µM
same,EC50,[7],~200 µM
"CCCN(CCC)C1CCc2cccc(O)c2C1 (stereo not shown) [8-OH-DPAT, 8-hydroxy-2-(di-n-propylamino) tetralin]",effect on locomotion,"[3]; 8-OH-DPAT at 2 mM, hypotonic",no effect on locomotion
same,effect on locomotion,"[4]; 8-OH-DPAT at 2 mM, hypotonic",no effect on locomotion
same,paralysis,"[5]; 8-OH-DPAT (2 mM), hypotonic",rapidly paralyzed
"CSCCC(NC(=O)C(Cc1ccc(O)cc1)NC(=O)Cc1c[nH]c2ccccc12)C(=O)NC(C)C(=O)O [CD3-276, N-[(Indol-3)acetyl]-D-Tyrosyl-Methionyl-D-alanine]","FF (n = 2 mean), Minimum Effective Concentration (MEC)",[8],>100 µg/mL
same,activity against heartworm,[9],inactive
same,"HW (n = 2 mean), minimum efficacious dose (MED)",[9],>100 µg/mL
same,"HC (n = 2 mean), minimum efficacious dose (MED)",[10],>100 µg/mL
O=C(/C=C/c1c[nH]c2ccccc12)c1ccccc1 [CD3-664],"FF (n = 2 mean), Minimum Effective Concentration (MEC)",[8],>100 µg/mL
same,activity against heartworm,[9],active against heartworm
same,"HW (n = 2 mean), minimum efficacious dose (MED)",[9],100 µg/mL
same,"HC (n = 2 mean), minimum efficacious dose (MED)",[10],>100 µg/mL
"O=C(/C=C/c1c[nH]c2ccc(O)cc12)c1ccncc1 [CD3-718, trans-3-(5-hydroxy-1H-indol-3-yl)-1-(4-pyridinyl)-2-propen-1-one]",paralysis,[1]; 15 minutes exposure,causing paralysis
same,paralysis,"[2]; 5-HT quint animals, 15 minutes exposure",not in animals that do not express any previously identified 5-HT receptors
same,paralysis,"[3]; animals expressing the nematode 5-HT1 receptor (SER-4), 15 minutes exposure",causing paralysis
same,selectivity for C. elegans 5-HT1 versus human 5-HT1,[11],remarkable selectivity; also recorded: remarkably selective
same,"FF (n = 2 mean), Minimum Effective Concentration (MEC)",[8],>100 µg/mL
same,activity against heartworm,[9],inactive
same,"HW (n = 2 mean), minimum efficacious dose (MED)",[9],>100 µg/mL
same,"HC (n = 2 mean), minimum efficacious dose (MED)",[10],>100 µg/mL
COc1ccc2[nH]c(C)c(/C=C/C(=O)c3ccncc3)c2c1 [CD3-719],activity from observations of nematode locomotion,[3],decreased activity
CCCc1[nH]c2ccc(OC)cc2c1/C=C/C(=O)c1ccncc1 [CD3-980],activity from observations of nematode locomotion,[3],at least moderate activity with favorable species selectivity
COc1ccc2[nH]c(CC(C)C)c(/C=C/C(=O)c3ccncc3)c2c1 [CD3-984],activity from observations of nematode locomotion,[3],at least moderate activity with favorable species selectivity
"Nc1ccc(CCN2CCN(c3cccc(C(F)(F)F)c3)CC2)cc1 [PAPP, p-amino-phenethyl-m-trifluoromethylphenyl piperazine]",EC50,"[1]; Caenorhabditis elegans, 0.25 h, 15 min exposure, hypotonic, read-out: EC50 of PAPP-dependent paralysis",370 µM
same,EC50,"[2]; Caenorhabditis elegans, 0.25 h, read-out: EC50 of PAPP-dependent paralysis",680 µM
same,EC50,[3],170 µM
"NCCc1ccc(O)cc1 [TA, tyramine]",EC50,[12],~100 µM
same,effect on locomotion,[13],no effect on locomotion
same,EC50,[14],~100 µM
"Cl.Cl.NCCc1c[nH]cn1 [histamine, histamine dihydrochloride]",paralysis,"[1]; 2 mM histamine, NGM plates",did not cause paralysis
same,paralysis,"[15]; 2 mM histamine, NGM plates",did not cause paralysis
same,paralysis,"[15]; 2 mM histamine, hypotonic assay conditions",caused significance paralysis
same,paralysis,"[15]; 10 mM histamine, NGM plates",caused significance paralysis
"CNS(=O)(=O)Cc1ccc2[nH]cc(CCN(C)C)c2c1 [sumatriptan, sumatriptan succinate]",effect on locomotion,"[1]; 0.5 mM sumatriptan, hypotonic",no effect on locomotion
same,effect on locomotion,[3]; 0.5 mM sumatriptan,no effect on locomotion
same,effect on locomotion,[4]; 0.5 mM sumatriptan,no effect on locomotion
same,effect on locomotion,[5]; 0.5 mM sumatriptan,no effect on locomotion
same,paralysis,[5]; sumatriptan at higher concentrations (1 mM),failed to fully paralyze
